Results published in PMC10313052, “Filarial DAF-12 sense the host serum to resume iL3 development during infection” (PLOS Pathogens, 2023).

Target: T1, BmaDAF-12 (Brugia malayi, UniProt A0A4E9F2L4, R841H)
T1 sequence (A0A4E9F2L4 639-880 R841H): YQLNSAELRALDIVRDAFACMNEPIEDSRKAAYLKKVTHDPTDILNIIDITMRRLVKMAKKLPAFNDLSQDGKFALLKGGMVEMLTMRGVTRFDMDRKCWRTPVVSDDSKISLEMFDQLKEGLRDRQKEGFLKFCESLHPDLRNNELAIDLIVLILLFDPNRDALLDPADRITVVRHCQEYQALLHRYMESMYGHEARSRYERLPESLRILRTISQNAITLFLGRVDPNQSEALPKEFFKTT
Test: cell-based

CC(CCCC(C)C1CCC2C3=CCC4CC(=O)CCC4(C)C3CCC21C)C(=O)O [Δ7-dafachronic acid, (25S)-Δ7-dafachronic acid]
EC50: 1.8 nM
